Reference: PMC10108821, “Three tyrosine kinase inhibitors cause cardiotoxicity by inducing endoplasmic reticulum stress and inflammation in cardiomyocytes” (BMC Medicine, 2023)

Assays:
Cor.4U hiPSC-CMs [1] = experiment: ATP level (CellTiter-Glo) in hiPSC-CMs; assay type: cell-based, human; settings: for effect on ATP levels: 0.32 to 10 µM, day 1 to day 5; for dose-dependent toxicity (ATP fold changes): day 1, different doses; for dose-dependent toxicity (ATP fold changes) / time-dependent toxicity (ATP fold changes): RNAseq conditions; for time-dependent toxicity (ATP fold changes): fixed dose over 5 days
Protocol: ATP content was measured using the CellTiter-Glo Luminescent Cell Viability Assay (Promega) following the manufacturer’s protocol. After adding CellTiter-Glo reagents and incubation, luminescence was quantified using a Synergy H1 plate reader (BioTek Instruments). ATP standards were prepared from 0.01 to 5 μM. For each drug, we fitted a four-parameter log-logistic model to calculate ED50 at day 5 (Fig S1). To rank the cellular toxicity of the eight TKIs (Fig 1T), we calculated (EC50-Cmax)/(EC50+Cmax) and arranged from the smallest to the biggest for increasing cellular toxicity.

HELP hiPSC-CMs = experiment: CardioExcyte 96 microelectrode array: base impedance and extracellular field potential; assay type: cell-based, human; settings: fixed doses: 10 µM, crizotinib and ponatinib 3.16 µM; up to 24 h
Protocol: HELP hiPSC-CMs were seeded evenly into the 96-well microelectrode array, NSP-96 0.6mm sensor plate (Nanion technologies), at 50,000 cells per well. Measurements were started after 3-5 days of culture of these cells and until the impedance and the extracellular field potential are stable. Measurements were taken a few times before drug addition, and every 30~60 minutes after the drugs were added at 2x concentration. Values were averaged from 3 wells per group. Beat rate, amplitude of impedance, base impedance and FPDc were calculated by the Cardio Excyte Control 96 software package (Nanion Technologies).

NRCMs [2] = experiment: Mitochondrial membrane potential by TMRE staining; assay type: cell-based, rat; settings: 24 h of treatment
Text: Fig S3 Mitochondrial membrane potential changes in response to TKIs. (A) Raw images of TMRE staining in NRCMs treated with different drugs. (B) Fold changes in mitochondrial membrane potential at different treatments.

patients = settings: cited from earlier work; for level of cardiotoxicity based on literature reports: ref Table S1, 2, 4, 26–36
Cor.4U hiPSC-CMs [3] = experiment: 3'DGE-UMI RNAseq transcriptome of hiPSC-CMs; settings: for expression of genes associated with heart contraction: Cluster 4, day 3 or day 5; for expression of mitochondrial tRNA and electron transfer chain genes: high PC2 loadings
NRCMs [4] = experiment: Seahorse assay: oxygen consumption and extracellular acidification; assay type: cell-based, rat; settings: 24 h; fixed doses: 10 µM, crizotinib and ponatinib 3.16 µM
Protocol: (§1) Rats were euthanized by decapitation and thoracic cavity was opened with scissors and hearts were popped out of the opening gently with fingers. Hearts were clipped and put in HBSS immediately; 20–40 hearts were collected into one sterile vial containing a magnetic stir bar and 1 mL digestive media made of 0.1% trypsin (Macklin) and 0.05% collagenase (Gibco) in HBSS. Hearts were minced until they were uniform in size. Digestive media was added to 10 mL for 40 hearts and stirred gently for 6 min. Supernatant was discarded and the digestion was repeated once; 10 mL digestive media was added and stirred gently for 10 min. The supernatant with cells were collected and the digestion and collection were repeated 4 times. Cells were centrifuged at 1200 rpm for 5 min, resuspended in media (Dulbecco’s modified Eagleʼs medium (Gibco)) with 10% fetal bovine serum (FBS; VISTECH), 1% penicillin–streptomycin, and 1% 0.1 M 5-bromo-2-deoxyuridine solution (Shanghai Yuanye) and filtered through a 40-μm cell strainer. Cells were seeded on a 100-mm plastic dish and cultured in a 5% CO2 incubator at 37 °C for 2 h to allow non-myocytes to adhere to the plate. The dish was swirled and media gently pipetted up and down to detach lightly attached cardiomyocytes. The collected myocytes were seeded in the same media described before; 48 h after plating, medium was exchanged to fresh DMEM (Gibco) with or without 2% FBS. All drug treatments were performed after this media change.
NRCMs were seeded evenly into the Seahorse XF96 cell culture plates (Agilent) and cultured in DMEM high glucose with 2% FBS. About 2 hours before the test, cells were moved to a non-CO2 incubator at 37 ° C and incubated for 1 hour. 1 hour prior to the test, culture media was replaced with the Seahorse Basal DMEM at 37°C (with appropriate concentration of glucose, 4mM L-glutamine, 1 mM sodium pyruvate and 1% penicillin-streptomycin solution) and incubated in a non-CO2 incubator at 37°C for 1 hour. Drugs were prepared at 8x to 10x concentrations with the corresponding seahorse media as in each well and added into ports of Seahorse XF96 cartridge plates which have been hydrated overnight. XFe96 Extracellular Flux Analyzer (Agilent) was used to measure oxygen consumption rate and extracellular acidification rate of cells with different drug treatments.

NRCMs [5] = experiment: Lipid peroxidation by C11-bodipy 581/591 and flow cytometry; settings: 100 µM, 3 hours, Fig. S15
Protocol: For ROS assessment, cells were washed with PBS once and stained with 10μM H2DCFHDA (MCE) in phenol red-free DMEM (Procell) in a humid incubator with 5% CO2 at 37°C for 30 minutes. Cells were washed with PBS twice and dissociated to single cells before flow cytometry analysis at the FITC channel. For lipid peroxidation measurement, cells were washed with PBS once and stained with 2μM C11-bodipy^581/591 (Cayman) in phenol red-free DMEM (Procell) in a humid incubator with 5% CO2 at 37°C for 30 minutes. Cells were washed with PBS twice and dissociated to single cells before flow cytometry analysis at both the FITC and the PE channels. Fluorescence of the oxidized C11-bodipy were acquired through the FITC channel (Ex/Em=488/520nm) and that of the non-oxidized C11-bodipy through the PE channel (Ex/Em=555/624nm).

ER stress genes in NRCMs = experiment: qRT-PCR of ER stress genes in NRCMs; assay type: cell-based, rat; settings: trolox 1 mM with afatinib or sorafenib
Protocol: as §1, with “The collected myocytes were seeded in the same media described before; 48 h after plating, medium was exchanged to fresh DMEM (Gibco) with or without 2% FBS.” left out
RNA was isolated based on a standard protocol using TRIzol reagent (Vazyme). TRIzol (1ml per 1 well of a 6-well plate) was used to lyse cells and chloroform was added for RNA separation. Samples were shaked vigorously by hand for 15 seconds and incubated at room temperature for 2-3 minutes. RNA was present in the aqueous phase after centrifuge at 12000 x g for 15 minutes. Isopropyl alcohol was mixed to precipitate RNA from the aqueous phase. […] 1 μg total RNA was used for cDNA synthesis using a reverse transcription kit (Bioman). We then measured expression of genes of interest with SYBRR Green qPCR Mix (Bioman) using Applied Biosystems 7500 Quantitative PCR Instrument. Gene expression was normalized to the 18S ribosomal RNA expression and primers were listed in Primers Table.

NRCMs [6] = settings: ISRIB 200 nM or 4μ8c 10 μM with 10 µM sorafenib, 24-hr
Protocol: After treatment, cells were stained with 5 μg/mL Propidium iodide (Sigma-Aldrich) mixed with Hoechst33342 (Solarbio) in Phenol red-free DMEM (Procell) in a 5% CO2 incubator at 37°C for 30 minutes. Images of PI staining were acquired through the filter Ex/Em=555/624nm and of the nuclei staining through the filter Ex/Em=405/452 using ImageXpress Micro Confocal-AWES (Molecular Devices).

NRCMs [7] = experiment: qRT-PCR of fetal, pro-inflammatory and ER stress genes with pathway-selective inhibitors; assay type: cell-based, rat; settings: 24 h
Protocol: as §1
RNA was isolated based on a standard protocol using TRIzol reagent (Vazyme). TRIzol (1ml per 1 well of a 6-well plate) was used to lyse cells and chloroform was added for RNA separation. Samples were shaked vigorously by hand for 15 seconds and incubated at room temperature for 2-3 minutes. RNA was present in the aqueous phase after centrifuge at 12000 x g for 15 minutes. Isopropyl alcohol was mixed to precipitate RNA from the aqueous phase. RNA precipitations were washed with 75% ethanol once and re-dissolved in RNase-free water. 1 μg total RNA was used for cDNA synthesis using a reverse transcription kit (Bioman). We then measured expression of genes of interest with SYBRR Green qPCR Mix (Bioman) using Applied Biosystems 7500 Quantitative PCR Instrument. Gene expression was normalized to the 18S ribosomal RNA expression and primers were listed in Primers Table.

| Compound | effect on ATP levels (Cor.4U hiPSC-CMs [1]) | effect on beat rate, contraction, base impedance and corrected field potential duration (HELP hiPSC-CMs) | level of cardiotoxicity based on literature reports (patients) | dose-dependent toxicity (ATP fold changes) (Cor.4U hiPSC-CMs [1]) | basal oxygen consumption rate (OCR) (NRCMs [4]) | other results |
| --- | --- | --- | --- | --- | --- | --- |
| Cc1cn(-c2cc(NC(=O)c3ccc(C)c(Nc4nccc(-c5cccnc5)n4)c3)cc(C(F)(F)F)c2)cn1 [nilotinib] | dose-dependent and time-dependent reduction in ATP levels | minimal effects on these parameters | medium-levels of cardiotoxicity | – | – | EC50 (ATP) compared with maximal plasma concentration (Cmax) (Cor.4U hiPSC-CMs [1]; day 5): lower than or similar to their maximal plasma concentrations (Cmax); mitochondrial membrane potential (NRCMs [2]): trend of decreasing mitochondrial membrane potentials |
| COc1cc2ncnc(Nc3ccc(F)c(Cl)c3)c2cc1OCCCN1CCOCC1 [gefitinib] | did not inhibit ATP at any dose or time point tested | minimal effects on these parameters | low cardiotoxicity | did not | – | expression of genes associated with heart contraction (Cor.4U hiPSC-CMs [3]): upregulated |
| C[C@@H](Oc1cc(-c2cnn(C3CCNCC3)c2)cnc1N)c1c(Cl)ccc(F)c1Cl [crizotinib] | dose-dependent and time-dependent reduction in ATP levels | stopped beating and contraction of hiPSC-CMs after 0.5 h of treatment | medium-levels of cardiotoxicity | dose-dependent toxicity | trend of inhibiting basal oxygen consumption rate (OCR) | expression of mitochondrial tRNA and electron transfer chain genes (Cor.4U hiPSC-CMs [3]): upregulated |
| CCN(CC)CCNC(=O)c1c(C)[nH]c(/C=C2\C(=O)Nc3ccc(F)cc32)c1C [sunitinib] | dose-dependent and time-dependent reduction in ATP levels | increased beat rate initially and reduced the base impedance very acutely | high-levels of cardiotoxicity | dose-dependent toxicity | trend of inhibiting basal oxygen consumption rate (OCR) | time-dependent toxicity (ATP fold changes) (Cor.4U hiPSC-CMs [1]): increasing toxicity with treatment duration; maximal, spare and non-mitochondrial oxygen consumption (NRCMs [4]): inhibited maximal, spare, and non-mitochondrial oxygen consumption significantly; mitochondrial membrane potential (NRCMs [2]): trend of decreasing mitochondrial membrane potentials; congestive heart failure (patients; meta-analysis of 6935 patients): 4.1%; expression of mitochondrial tRNA and electron transfer chain genes (Cor.4U hiPSC-CMs [3]): upregulated |
| CC(C)(OO)c1ccccc1 [cumene hydroperoxide] | – | – | – | – | – | level of lipid peroxidation, positive control (NRCMs [5]): 42% |
| Cc1nc(Nc2ncc(C(=O)Nc3c(C)cccc3Cl)s2)cc(N2CCN(CCO)CC2)n1 [dasatinib] | did not inhibit ATP at any dose or time point tested | minimal effects on these parameters | medium-levels of cardiotoxicity | did not | trend of inhibiting basal oxygen consumption rate (OCR) | time-dependent toxicity (ATP fold changes) (Cor.4U hiPSC-CMs [1]): increasing toxicity with treatment duration; expression of genes associated with heart contraction (Cor.4U hiPSC-CMs [3]): upregulated |
| Cc1c(C)c2c(c(C)c1O)CCC(C)(C(=O)O)O2 (centres unmarked) [trolox] | – | – | – | – | – | effect on induction of ER stress by TKIs (ER stress genes in NRCMs): did not block the induction of ER stress by these TKIs |
| Cc1cc(=O)oc2c(C=O)c(O)ccc12 [4μ8c] | – | – | – | – | – | rescue from cell death induced by sorafenib (NRCMs [6]): significantly rescued cardiac cell from death induced by sorafenib; induction of inflammatory genes and cardiac fetal genes (Anp, Bnp/Nppb, Myh6) by TKIs (NRCMs [7]; 4μ8c 10 μM co-treatment with TKIs): blunted; effect on Atf4, Ddit3, Xbp1s and Dnajb9 expression induced by TKIs (NRCMs [7]; ISRIB 200 nM or 4μ8c 10 μM with TKIs): inhibited Xbp1s and Dnajb9 without affecting the ATF4 axis |
